Laboratory results as given in ChEMBL document CHEMBL1147010, “Aziridine-2,3-dicarboxylate inhibitors targeting the major cysteine protease of Trypanosoma brucei as lead trypanocidal agents” (Bioorg Med Chem Lett, 2006).
Converted amounts (≈) assume the structure as drawn.

How the values were obtained:
Rhodesain = Rhodesain (Trypanosoma brucei rhodesiense, UniProt Q95PM0); experiment: Inhibition of Trypanosoma brucei rhodesiense rhodesain
[1] = tested on: Trypanosoma brucei brucei; experiment: Trypanocidal activity against Trypanosoma brucei brucei after 48 hrs; assay type: functional, organism-based
J774 [2] = experiment: Cytotoxicity against J774.1 cell line after 48 hrs; assay type: functional, cell-based; conditions: Mus musculus, J774, 48 h
J774 [3] = experiment: Selectivity index, IC50 for J774.1/IC50 for Trypanosoma brucei brucei; assay type: functional

Chain of Rhodesain (Q95PM0 whole entry): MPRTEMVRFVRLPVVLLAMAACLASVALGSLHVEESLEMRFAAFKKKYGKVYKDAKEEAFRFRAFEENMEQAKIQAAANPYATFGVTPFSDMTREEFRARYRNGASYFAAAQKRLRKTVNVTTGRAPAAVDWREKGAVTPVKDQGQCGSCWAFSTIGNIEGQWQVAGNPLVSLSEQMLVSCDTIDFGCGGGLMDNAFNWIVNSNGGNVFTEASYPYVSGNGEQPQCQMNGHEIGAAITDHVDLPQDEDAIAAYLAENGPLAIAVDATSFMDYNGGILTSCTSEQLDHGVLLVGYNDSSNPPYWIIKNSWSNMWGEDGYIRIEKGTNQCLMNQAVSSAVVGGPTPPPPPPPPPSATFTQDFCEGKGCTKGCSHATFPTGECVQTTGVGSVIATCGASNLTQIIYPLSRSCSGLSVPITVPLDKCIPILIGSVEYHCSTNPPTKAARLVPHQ

| Structure (SMILES) | Ki (Rhodesain) [µM] | IC50 [1] [µM] | IC50 (J774 [2]) [µM] | Ratio IC50 (J774 [3]) | MIC [1] [µM] |
| --- | --- | --- | --- | --- | --- |
| CCOC(=O)[C@H]1[C@H](C(=O)OCC)N1C(=O)[C@H]1CCN1C(=O)[C@H](CC(C)C)NC(=O)OC(C)(C)C | 3.1 | 20.6 | > 100 | >4.8 |  |
| CCOC(=O)[C@@H]1[C@@H](C(=O)OCC)N1C(=O)[C@@H]1CCCN(C(=O)[C@H](CC(C)C)NC(=O)OC(C)(C)C)C1 | 1 | > 100 | > 100 |  |  |
| CC(C)(C)OC(=O)NCC(=O)N1CCC[C@H]1C(=O)N1[C@H](C(=O)O)[C@H]1C(=O)O | 0.9 | > 100 | > 100 |  |  |
| CC(C)(C)OC(=O)NCC(=O)N1CCC[C@H]1C(=O)N1[C@H](C(=O)OCc2ccccc2)[C@H]1C(=O)OCc1ccccc1 | 3.1 | > 100 | > 100 |  |  |
| CC(C)(C)OC(=O)NCC(=O)N1CCC[C@@H](C(=O)N2[C@H](C(=O)OCc3ccccc3)[C@H]2C(=O)OCc2ccccc2)C1 | 1.1 | 36.4 | > 100 | >2.7 |  |
| CC(C)C[C@@H](NC(=O)OC(C)(C)C)C(=O)N1CCC[C@H]1C(=O)N1[C@H](C(=O)OCc2ccccc2)[C@H]1C(=O)OCc1ccccc1 | 1.1 | 34.3 | > 100 | >2.9 |  |
| CC(C)C[C@H](NC(=O)OC(C)(C)C)C(=O)N1CCC[C@@H]1C(=O)N1[C@H](C(=O)OCc2ccccc2)[C@H]1C(=O)OCc1ccccc1 | 1.2 | 31.4 | > 100 | >3.2 |  |
| CC1CS(=O)(=O)CCN1/N=C/c1ccc([N+](=O)[O-])o1 (configuration not stated) [NIFURTIMOX] |  | 3.4 | > 200 | >58 | 200 (≈ 57.5 µg/mL) |
| CCOC(=O)[C@@H]1[C@@H](C(=O)OCC)N1C(=O)[C@H]1CCCN(C(=O)[C@H](CC(C)C)NC(=O)OC(C)(C)C)C1 | 1 | > 100 | > 100 |  |  |
| C[C@H](NC(=O)[C@H](Cc1ccccc1)NC(=O)OC(C)(C)C)C(=O)N1[C@H](C(=O)OCc2ccccc2)[C@H]1C(=O)OCc1ccccc1 | 1.9 | 26.7 | > 100 | >3.7 |  |
| CC(C)C[C@@H](NC(=O)OC(C)(C)C)C(=O)N1CCC[C@H](C(=O)N2[C@H](C(=O)OCc3ccccc3)[C@H]2C(=O)OCc2ccccc2)C1 | 0.7 | 34 | > 100 | >2.9 |  |
| CCOC(=O)[C@@H]1[C@@H](C(=O)OCC)N1C(=O)[C@@H]1CN1C(=O)[C@@H](CC(C)C)NC(=O)OC(C)(C)C | 1.6 | 28.3 | > 100 | >3.5 |  |
| C[C@H](NC(=O)[C@H](Cc1ccccc1)NC(=O)OC(C)(C)C)C(=O)N1[C@H](C(=O)O)[C@H]1C(=O)O | 0.5 |  |  |  |  |
| CC(C)C[C@@H](NC(=O)OC(C)(C)C)C(=O)N1CCC[C@@H]1C(=O)N1[C@H](C(=O)OCc2ccccc2)[C@H]1C(=O)OCc1ccccc1 | 2.8 | 35.2 | > 100 | >2.8 |  |
| CC(C)C[C@H](NC(=O)OC(C)(C)C)C(=O)N1CCC[C@H](C(=O)N2[C@H](C(=O)OCc3ccccc3)[C@H]2C(=O)OCc2ccccc2)C1 | 0.6 | 25.6 | > 100 | >3.9 |  |
| CC(C)C[C@H](NC(=O)OC(C)(C)C)C(=O)N1CCC[C@H]1C(=O)N1[C@@H](C(=O)OCc2ccccc2)[C@@H]1C(=O)OCc1ccccc1 | 0.5 | 10.9 | > 125 | >11.5 | 125 (≈ 77.7 µg/mL) |
| CC(C)C[C@H](NC(=O)OC(C)(C)C)C(=O)N1CC[C@@H]1C(=O)N1[C@H](C(=O)OCc2ccccc2)[C@H]1C(=O)OCc1ccccc1 | 0.8 | 30.8 | 37.2 | 1.2 |  |

| Structure (SMILES) | Ki (Rhodesain) [µM] | IC50 [1] [µM] | IC50 (J774 [2]) [µM] | Ratio IC50 (J774 [3]) | MIC [1] [µM] |
| --- | --- | --- | --- | --- | --- |
| CCOC(=O)[C@H]1[C@H](C(=O)OCC)N1C(=O)CCCCCNC(=O)CCCC[C@@H]1SC[C@@H]2NC(=O)N[C@@H]21 | 0.6 | > 100 | > 100 |  |  |
| CCOC(=O)[C@@H]1[C@@H](C(=O)OCC)N1C(=O)[C@@H]1CCCN1C(=O)[C@H](CC(C)C)NC(=O)OC(C)(C)C | 3.1 | > 100 | > 100 |  |  |
| CC(C)(C)OC(=O)NCC(=O)N1CCCC[C@H]1C(=O)N1[C@H](C(=O)OCc2ccccc2)[C@H]1C(=O)OCc1ccccc1 | 0.7 | 27.6 |  |  |  |
| CCOC(=O)[C@H]1[C@H](C(=O)OCC)N1C(=O)[C@@H]1CCN1C(=O)[C@H](CC(C)C)NC(=O)OC(C)(C)C | 3.1 | 20.6 | > 100 | >4.8 |  |
| CC(C)C[C@H](NC(=O)OC(C)(C)C)C(=O)N1CC[C@H]1C(=O)N1[C@H](C(=O)OCc2ccccc2)[C@H]1C(=O)OCc1ccccc1 | 0.8 | 30.8 | 37.2 | 1.2 |  |
| C[C@H](NC(=O)[C@@H](Cc1ccccc1)NC(=O)OC(C)(C)C)C(=O)N1[C@H](C(=O)O)[C@H]1C(=O)O | 0.1 |  |  |  |  |
| CCOC(=O)[C@@H]1[C@@H](C(=O)OCC)N1C(=O)C1CCN(C(=O)[C@H](CC(C)C)NC(=O)OC(C)(C)C)CC1 | 1.4 | > 100 | > 100 |  |  |
| C[C@@H](NC(=O)[C@H](Cc1ccccc1)NC(=O)OC(C)(C)C)C(=O)N1[C@H](C(=O)OCc2ccccc2)[C@H]1C(=O)OCc1ccccc1 | 1.2 | 30.5 | > 100 | >3.2 |  |
| CC(C)(C)OC(=O)NCC(=O)N1CCC[C@H](C(=O)N2[C@H](C(=O)OCc3ccccc3)[C@H]2C(=O)OCc2ccccc2)C1 | 1.1 | 36.4 | > 100 | >2.7 |  |
| CC(C)(C)OC(=O)NCC(=O)N1CCC[C@@H]1C(=O)N1[C@H](C(=O)OCc2ccccc2)[C@H]1C(=O)OCc1ccccc1 | 1.6 | > 100 | > 100 |  |  |
| CC(C)C[C@H](NC(=O)OC(C)(C)C)C(=O)N1CCC[C@@H](C(=O)N2[C@H](C(=O)OCc3ccccc3)[C@H]2C(=O)OCc2ccccc2)C1 | 0.6 | 25.6 | > 100 | >3.9 |  |
| C[C@@H](NC(=O)[C@@H](Cc1ccccc1)NC(=O)OC(C)(C)C)C(=O)N1[C@H](C(=O)OCc2ccccc2)[C@H]1C(=O)OCc1ccccc1 | 3.9 | 25.8 | > 100 | >3.8 |  |
| C[C@@H](NC(=O)[C@H](Cc1ccccc1)NC(=O)OC(C)(C)C)C(=O)N1[C@H](C(=O)O)[C@H]1C(=O)O | 0.8 |  |  |  |  |
| CCOC(=O)[C@H]1[C@H](C(=O)OCC)N1C(=O)[C@@H]1CCCN(C(=O)[C@H](CC(C)C)NC(=O)OC(C)(C)C)C1 | 1.9 | > 100 | > 100 |  |  |
| CCOC(=O)[C@H]1[C@H](C(=O)OCC)N1C(=O)C1CCN(C(=O)[C@H](CC(C)C)NC(=O)OC(C)(C)C)CC1 | 3.3 | > 100 | > 100 |  |  |
| CCOC(=O)[C@H]1[C@H](C(=O)OCC)N1C(=O)[C@H]1CCCN(C(=O)[C@H](CC(C)C)NC(=O)OC(C)(C)C)C1 | 1.9 | > 100 | > 100 |  |  |
| C[C@@H](NC(=O)[C@@H](Cc1ccccc1)NC(=O)OC(C)(C)C)C(=O)N1[C@H](C(=O)O)[C@H]1C(=O)O | 5 |  |  |  |  |
